Reference: patent publication US4894458A, “Quinolonecarboxylic acid derivatives and their preparation” (Kyorin Pharmaceutical Co., Ltd., priority 1986, dated 1990)
≈ marks a conversion by molar mass, not a printed value. Read-outs that look alike come from different tables or passages of the source.

Legend:
C. ramosum = experiment: In vitro antibacterial activity (anaerobic bacteria), MIC; format: cell-based; conditions: anaerobic, Gram +, 10^6 cells/ml
[1] = tested on: gram-negative and gram-positive bacteria; conditions: cited from earlier work
[2] = tested on: Alcaligenes faecalis 0114002; experiment: In vitro antibacterial activity (aerobic bacteria), MIC; format: cell-based; conditions: Alcaligenes faecalis, 0114002, aerobic; Gram -; 10^6 cells/ml
[3] = tested on: Staphylococcus aureus 209 P; experiment: as above; format: cell-based; conditions: Gram +, 10^6 cells/ml
Experimental: (§1) Minimal inhibitory concentrations (MICs) were determined in accordance with the method recommended by Japan Society of Chemotherapy.

K. pneumoniae 1-220S = experiment: as above; format: cell-based; conditions: Klebsiella pneumoniae, 1220S, Gram -, 10^6 cells/ml
Experimental: as §1

[4] = tested on: Serratia marcescens IID 618; experiment: as above; format: cell-based; conditions: IID618, Gram -, 10^6 cells/ml
Experimental: as §1

[5] = tested on: Acinetobacter anitratus IID 876; experiment: as above; format: cell-based; conditions: 10^6 cells/ml
Experimental: as §1

[6] = tested on: Pseudomonas aeruginosa V-1; experiment: as above; format: cell-based; conditions: Gram -, 10^6 cells/ml
Experimental: as §1

[7] = tested on: S. aureus IID 670 (Terajima); experiment: as above; format: cell-based; conditions: Staphylococcus aureus, IID670, Gram +, 10^6 cells/ml
Experimental: as §1

P. mirabilis IID 994 = experiment: as above; format: cell-based; conditions: Proteus mirabilis, IID994, Gram -, 10^6 cells/ml
Experimental: as §1

[8] = tested on: Morganella morganii IID 602; experiment: as above; format: cell-based; conditions: 10^6 cells/ml
Experimental: as §1

S. epidermidis IID 866 = experiment: as above; format: cell-based; conditions: Staphylococcus epidermidis, IID866, Gram +, 10^6 cells/ml
Experimental: as §1

P. aeruginosa IFO 12689 = experiment: as above; format: cell-based; conditions: Pseudomonas aeruginosa, IFO12689
[9] = tested on: Bacteroides fragilis GM 7000; experiment: In vitro antibacterial activity (anaerobic bacteria), MIC; format: cell-based; conditions: GM7000
[10] = tested on: B. thetaiotaomicron (0661); experiment: as above; format: cell-based; conditions: anaerobic, Gram -, 10^6 cells/ml
[11] = tested on: Yersinia enterocolitica IID 981; experiment: microbe, parasite or virus in culture; format: cell-based; conditions: IID981
[12] = tested on: Escherichia coli NIHJ JC-2; experiment: In vitro antibacterial activity (aerobic bacteria), MIC; format: cell-based; conditions: NIHJJC2, aerobic, Gram -, 10^6 cells/ml
[13] = tested on: Bacillus subtilis PCI 219; experiment: as above; format: cell-based; conditions: PCI219
[14] = tested on: Peptococcus magnus KY 017; experiment: In vitro antibacterial activity (anaerobic bacteria), MIC; format: cell-based; conditions: 10^6 cells/ml
Experimental: as §1

B. fragilis 25285 = experiment: as above; format: cell-based; conditions: Bacteroides fragilis
[15] = tested on: Veillonella parvula KYA 10790; experiment: as above; format: cell-based; conditions: KYA10790
[16] = tested on: Citrobacter freundii IID 976; experiment: In vitro antibacterial activity (aerobic bacteria), MIC; format: cell-based
B. fragilis 0558 = experiment: In vitro antibacterial activity (anaerobic bacteria), MIC; format: cell-based; conditions: Bacteroides fragilis
Pst micros UPI 5464-1 = experiment: microbe, parasite or virus in culture; format: cell-based; conditions: anaerobic; Gram +; 10^6 cells/ml
[17] = tested on: Eubacterium lentum GAI 5242; experiment: In vitro antibacterial activity (anaerobic bacteria), MIC; format: cell-based; conditions: Eggerthella lenta, GAI5242
Shigella sonnei IID 969 = experiment: In vitro antibacterial activity (aerobic bacteria), MIC; format: cell-based; conditions: IID969, Gram -, 10^6 cells/ml
Experimental: as §1

E. coli ATCC 10536 = experiment: as above; format: cell-based; conditions: Escherichia coli, ATCC10536, Gram -, 10^6 cells/ml
Experimental: as §1

[18] = tested on: Proteus vulgaris IFO 3167; experiment: as above; format: cell-based; conditions: IFO3167, Gram -, 10^6 cells/ml
Experimental: as §1

[19] = tested on: Clostridium difficile I-E; experiment: In vitro antibacterial activity (anaerobic bacteria), MIC; format: cell-based; conditions: Clostridioides difficile; anaerobic; Gram +; 10^6 cells/ml; read-out: MIC
[20] = tested on: Klebsiella pneumoniae KY(GN)6445; experiment: In vitro antibacterial activity (aerobic bacteria), MIC; format: cell-based
F. varium KYA 8501 = experiment: In vitro antibacterial activity (anaerobic bacteria), MIC; format: cell-based; conditions: Fusobacterium varium, KYA8501; anaerobic; Gram -; 10^6 cells/ml; read-out: MIC
[21] = tested on: Peptostreptococcus anaerobius KYA 27337; experiment: as above; format: cell-based; conditions: KYA27337, anaerobic, Gram +, 10^6 cells/ml, read-out: MIC
P. aeruginosa IID 1210 = experiment: In vitro antibacterial activity (aerobic bacteria), MIC; format: cell-based; conditions: Pseudomonas aeruginosa, IID1210, aerobic; Gram -; 10^6 cells/ml
C. perfringens KYA 13123 = experiment: microbe, parasite or virus in culture; format: cell-based; conditions: Clostridium perfringens, KYA13123
B. distasonis 8503 = experiment: In vitro antibacterial activity (anaerobic bacteria), MIC; format: cell-based; conditions: Parabacteroides distasonis, Gram -, 10^6 cells/ml, read-out: MIC
P. cepacia GIFU 518 = experiment: In vitro antibacterial activity (aerobic bacteria), MIC; format: cell-based; conditions: Burkholderia cepacia, GIFU518; aerobic; Gram -; 10^6 cells/ml; read-out: MIC
[22] = tested on: Fusobacterium necrophorum S-45; experiment: In vitro antibacterial activity (anaerobic bacteria), MIC; format: cell-based; conditions: S45, anaerobic, Gram -, 10^6 cells/ml, read-out: MIC
P. maltophilia GIFU 2491 = experiment: In vitro antibacterial activity (aerobic bacteria), MIC; format: cell-based; conditions: Stenotrophomonas maltophilia, GIFU2491; aerobic; Gram -; 10^6 cells/ml; read-out: MIC
[23] = tested on: Enterobacter cloacae IID 977; experiment: as above; format: cell-based; conditions: IID977
[24] = tested on: Salmonella enteritidis IID 604; experiment: as above; format: cell-based; conditions: Salmonella enterica
[25] = tested on: Propionibacterium acens 11828; experiment: In vitro antibacterial activity (anaerobic bacteria), MIC; format: cell-based; conditions: anaerobic, Gram +, 10^6 cells/ml, read-out: MIC
[26] = Acinetobacter calcoaceticus, IID876, Gram -, read-out: MIC
[27] = Pseudomonas aeruginosa, V1, aerobic, read-out: MIC
[28] = Morganella morganii, IID602, Gram -, read-out: MIC
[29] = anaerobic, Gram -, 10^6 cells/ml, read-out: MIC

O=C(O)c1cn(C2CC2)c2cc(N3CCNCC3)c(F)cc2c1=O [CPFX, ciprofloxacin, reference compound]
MIC (C. ramosum): 6.25 mg/L (≈ 18.9 µM)
antibacterial activity compared with norfloxacin [1]: stronger antibacterial activity than norfloxacin
antibacterial potency against gram-positive bacteria ([1]; compared with gram-negative bacteria): considerably inferior to that against gram-negative bacteria
MIC [2]: 0.2 mg/L (≈ 0.604 µM)
MIC [3]: 0.2 mg/L (≈ 0.604 µM)
MIC (K. pneumoniae 1-220S): 0.05 mg/L (≈ 0.151 µM)
MIC [4]: 0.05 mg/L (≈ 0.151 µM)
MIC [5, 26]: 0.1 mg/L (≈ 0.302 µM)
MIC ([5]; Gram -): 0.20 mg/L (≈ 0.604 µM)
MIC [6, 27]: 0.05 mg/L (≈ 0.151 µM)
MIC ([6]; aerobic): 0.10 mg/L (≈ 0.302 µM)
MIC [7]: 0.2 mg/L (≈ 0.604 µM)
MIC (P. mirabilis IID 994): 0.025 mg/L (≈ 0.0754 µM)
MIC ([8]; Gram -): 0.025 mg/L (≈ 0.0754 µM)
MIC [8, 28]: 0.05 mg/L (≈ 0.151 µM)
MIC (S. epidermidis IID 866): 0.2 mg/L (≈ 0.604 µM)
MIC (P. aeruginosa IFO 12689): 0.2 mg/L (≈ 0.604 µM)
MIC [9]: 6.25 mg/L (≈ 18.9 µM)
MIC [10]: 25 mg/L (≈ 75.4 µM)
MIC [11]: 0.05 mg/L (≈ 0.151 µM)
MIC [12]: ≤ 0.0063 mg/L
MIC [13]: 0.05 mg/L (≈ 0.151 µM)
MIC ([14]; Gram +): 0.20 mg/L (≈ 0.604 µM)
MIC (B. fragilis 25285): 3.13 mg/L (≈ 9.45 µM)
MIC [15]: 0.2 mg/L (≈ 0.604 µM)
MIC ([16]; aerobic, Gram -, 10^6 cells/ml): 0.0063 mg/L (≈ 0.019 µM)
MIC (B. fragilis 0558): 3.13 mg/L (≈ 9.45 µM)

CCn1cc(C(=O)O)c(=O)c2cc(F)c(N3CCC(N)C3)c(C)c21 (centres unmarked) [Exp. 25, 7-(3-Amino-1-pyrrolidinyl)-1-ethyl-6-fluoro-1,4-dihydro-8-methyl-4-oxo-3-quinolinecarboxylic acid]
MIC (Pst micros UPI 5464-1): 0.39 mg/L (≈ 1.17 µM)
MIC (C. ramosum; Thomasclavelia ramosa, read-out: MIC): 12.5 mg/L (≈ 37.5 µM)
MIC [17]: 0.78 mg/L (≈ 2.34 µM)
MIC [2]: 0.78 mg/L (≈ 2.34 µM)
MIC [3]: 0.2 mg/L (≈ 0.6 µM)
MIC (K. pneumoniae 1-220S): 0.1 mg/L (≈ 0.3 µM)
MIC [4]: 0.05 mg/L (≈ 0.15 µM)
MIC [5, 26]: 0.78 mg/L (≈ 2.34 µM)
MIC [6, 27]: 0.39 mg/L (≈ 1.17 µM)
MIC (Shigella sonnei IID 969): 0.05 mg/L (≈ 0.15 µM)
MIC [7]: 0.2 mg/L (≈ 0.6 µM)
MIC (E. coli ATCC 10536): 0.025 mg/L (≈ 0.075 µM)
MIC (P. mirabilis IID 994): 0.05 mg/L (≈ 0.15 µM)
MIC [8, 28]: 0.2 mg/L (≈ 0.6 µM)
MIC (S. epidermidis IID 866): 0.2 mg/L (≈ 0.6 µM)
MIC [18]: 0.0125 mg/L (≈ 0.0375 µM)
MIC (P. aeruginosa IFO 12689; aerobic, Gram -, 10^6 cells/ml, read-out: MIC): 1.56 mg/L (≈ 4.68 µM)
MIC [19]: 6.25 mg/L (≈ 18.7 µM)
MIC [9]: 3.13 mg/L (≈ 9.39 µM)
MIC [20]: 0.1 mg/L (≈ 0.3 µM)
MIC ([10]; Bacteroides thetaiotaomicron, read-out: MIC): 6.25 mg/L (≈ 18.7 µM)
MIC (F. varium KYA 8501): 6.25 mg/L (≈ 18.7 µM)
MIC [11]: 0.1 mg/L (≈ 0.3 µM)
MIC [12]: 0.0125 mg/L (≈ 0.0375 µM)
MIC [21]: 1.56 mg/L (≈ 4.68 µM)
MIC (P. aeruginosa IID 1210): 0.78 mg/L (≈ 2.34 µM)
MIC [13]: 0.1 mg/L (≈ 0.3 µM)
MIC (C. perfringens KYA 13123): 0.78 mg/L (≈ 2.34 µM)
MIC (B. distasonis 8503): 6.25 mg/L (≈ 18.7 µM)
MIC (P. cepacia GIFU 518): 1.56 mg/L (≈ 4.68 µM)
MIC ([14]; Finegoldia magna, KY017, Gram +, read-out: MIC): 0.39 mg/L (≈ 1.17 µM)
MIC (B. fragilis 25285; [29]): 1.56 mg/L (≈ 4.68 µM)
MIC [22]: 1.56 mg/L (≈ 4.68 µM)
MIC [15]: 0.39 mg/L (≈ 1.17 µM)
MIC (P. maltophilia GIFU 2491): 1.56 mg/L (≈ 4.68 µM)
MIC ([16]; Citrobacter freundii, IID976): 0.05 mg/L (≈ 0.15 µM)
MIC (B. fragilis 0558; [29]): 1.56 mg/L (≈ 4.68 µM)
MIC [23]: 0.1 mg/L (≈ 0.3 µM)
MIC [24]: 0.05 mg/L (≈ 0.15 µM)
MIC [25]: 12.5 mg/L (≈ 37.5 µM)

CCn1cc(C(=O)O)c(=O)c2cc(F)c(N3CCNCC3)cc21 [norfloxacin]
antibacterial activity ([1]; gram-negative bacteria including Pseudomonas aeruginosa and gram-positive bacteria): high antibacterial activity
